Source: patent publication US8829190B2, “Triazolopyridines as phosphodiesterase inhibitors for treatment of dermal diseases” (Leo Pharma A/S, priority 2007, dated 2014)

Experiments:
Human recombinant PDE4 = Human recombinant PDE4 (Homo sapiens (Human), UniProt Q08499); test: PDE4 assay (SPA, cAMP cleavage); assay type: biochemical; conditions: human recombinant PDE4, 1 hour incubation, cAMP 1×10^-5M
Description: At the end of the incubation, the cleavage of the substrate was evaluated by the binding of the AMP product to SPA beads, which generate chemo luminescence when bound to the radioactive tracer. The AMP product inhibited the binding of the radioactive tracer to the beads, and the luminescent signal was competed.

[1] = system: Human peripheral blood mononuclear cells (PBMC); test: TNFα release in LPS-stimulated PBMC; assay type: cell-based; conditions: 30 minutes pre-incubation, lipopolysaccharide stimulation 18 hours, read-out: TNFa IC50
Description: Human peripheral blood mononuclear cells (PBMC) were isolated from buffy coats. […] The PBMC were suspended in RPMI1640 with 2% foetal calf serum (FCS), pen/strep and 2 mM L-glutamine at a concentration of 5×105 c/ml. The cells were pre-incubated for 30 minutes with the test compounds in 96 well tissue culture plates and stimulated for 18 hours with lipopolysaccharide […] (Sigma). The level of TNFα was measured in the culture supernatant by enzyme immuno assays using primary and secondary biotinylated antibodies from R&D systems.

Sequence of Human recombinant PDE4 (Q08499 other isoform, or with tags, fused parts or gaps): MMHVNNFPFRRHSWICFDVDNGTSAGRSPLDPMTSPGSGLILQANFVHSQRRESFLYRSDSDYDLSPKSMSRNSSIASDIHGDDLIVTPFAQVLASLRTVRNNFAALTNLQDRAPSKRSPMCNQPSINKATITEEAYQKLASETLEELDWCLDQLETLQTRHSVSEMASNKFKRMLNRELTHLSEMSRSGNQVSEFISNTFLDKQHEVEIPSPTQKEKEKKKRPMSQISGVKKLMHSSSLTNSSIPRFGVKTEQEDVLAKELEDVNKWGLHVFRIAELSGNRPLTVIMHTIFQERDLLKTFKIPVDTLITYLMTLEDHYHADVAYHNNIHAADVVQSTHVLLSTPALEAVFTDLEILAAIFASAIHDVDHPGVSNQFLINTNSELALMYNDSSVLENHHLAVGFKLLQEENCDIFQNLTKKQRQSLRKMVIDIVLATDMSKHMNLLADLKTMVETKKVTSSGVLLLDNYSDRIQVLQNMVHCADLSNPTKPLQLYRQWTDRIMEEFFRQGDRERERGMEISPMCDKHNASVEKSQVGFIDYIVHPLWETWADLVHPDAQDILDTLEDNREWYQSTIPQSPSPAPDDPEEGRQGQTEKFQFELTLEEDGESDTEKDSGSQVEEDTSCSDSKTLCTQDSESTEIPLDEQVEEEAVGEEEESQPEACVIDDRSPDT

SMILES	IC50 (Human recombinant PDE4)	IC50 [1]
COc1ccc(C(=O)Cc2c(Cl)cncc2Cl)n2nc(C3CC3)nc12 [Compound 101, 1-(2-cyclopropyl-8-methoxy-[1,2,4]triazolo[1,5-a]pyridin-5-yl)-2-(3,5-dichloro-pyridin-4-yl)-ethanone]	2 nM	3 nM
COc1ccc(C(=O)Cc2c(Cl)cncc2Cl)n2ncnc12 [Compound 102, 2-(3,5-Dichloro-pyridin-4-yl)-1-(8-methoxy-[1,2,4]triazolo[1,5-a]pyridin-5-yl)-ethanone]	134 nM	291 nM
COc1ccc(C(=O)Cc2c(Cl)cncc2Cl)n2nc(-c3ccco3)nc12 [Compound 103, 2-(3,5-Dichloro-pyridin-4-yl)-1-(2-furan-2-yl-8-methoxy-[1,2,4]triazolo[1,5-a]pyridin-5-yl)-ethanone]	7 nM	27 nM
COc1ccc(C(=O)Cc2c(Cl)cncc2Cl)n2nc(COCc3ccccc3)nc12 [Compound 104, 1-(2-Benzyloxymethyl-8-methoxy-[1,2,4]triazolo[1,5-a]pyridin-5-yl)-2-(3,5-dichloro-pyridin-4-yl)-ethanone]	26 nM	66 nM
COc1ccc(C(=O)Cc2c(Cl)cncc2Cl)n2nc(CO)nc12 [Compound 105, 2-(3,5-Dichloro-pyridin-4-yl)-1-(2-hydroxymethyl-8-methoxy-[1,2,4]triazolo[1,5-a]pyridin-5-yl)-ethanone]	305 nM	603 nM
COc1ccc(C(=O)Cc2c(Cl)cncc2Cl)n2nc(C3(CO)CC3)nc12 [Compound 106, 2-(3,5-Dichloro-pyridin-4-yl)-1-[2-(1-hydroxymethyl-cyclopropyl)-8-methoxy-[1,2,4]triazolo[1,5-a]pyridin-5-yl]-ethanone]	4 nM	5 nM
COc1ccc(C(=O)Cc2c(Cl)cncc2Cl)n2nc(C)nc12 [Compound 107, 2-(3,5-Dichloro-pyridin-4-yl)-1-(8-methoxy-2-methyl-[1,2,4]triazolo[1,5-a]pyridin-5-yl)-ethanone]	45 nM	117 nM
COc1ccc(C(=O)Cc2c(Cl)cncc2Cl)n2nc(C3(C(=O)O)CC3)nc12 [Compound 108, 1-{5-[2-(3,5-Dichloro-pyridin-4-yl)-acetyl]-8-methoxy-[1,2,4]triazolo[1,5-a]pyridin-2-yl}-cyclopropanecarboxylic acid]	55 nM	
COc1ccc(C(=O)Cc2c(Cl)cncc2Cl)n2nc(C3(C(=O)N4CCOCC4)CC3)nc12 [Compound 109, 2-(3,5-Dichloro-pyridin-4-yl)-1-{8-methoxy-2-[1-(morpholine-4-carbonyl)-cyclopropyl]-[1,2,4]triazolo[1,5-a]pyridin-5-yl}-ethanone]	24 nM	29 nM
COc1ccc(C(=O)Cc2c(Cl)cncc2Cl)n2nc(C3(C(=O)NCc4ccccc4)CC3)nc12 [Compound 110, 1-{5-[2-(3,5-Dichloro-pyridin-4-yl)-acetyl]-8-methoxy-[1,2,4]triazolo[1,5-a]pyridin-2-yl}-cyclopropanecarboxylic acid benzylamide]	0.5 nM	0.7 nM
COc1ccc(C(=O)Cc2c(Cl)cncc2Cl)n2nc(C3(C(=O)NCc4ccccn4)CC3)nc12 [Compound 112, 1-{5-[2-(3,5-Dichloro-pyridin-4-yl)-acetyl]-8-methoxy-[1,2,4]triazolo[1,5-a]pyridin-2-yl}-cyclopropanecarboxylic acid (pyridin-2-ylmethyl)-amide]	1 nM	0.6 nM
COc1ccc(C(=O)Cc2c(Cl)cncc2Cl)n2nc(C3(C(=O)NCc4cccnc4)CC3)nc12 [Compound 113, 1-{5-[2-(3,5-Dichloro-pyridin-4-yl)-acetyl]-8-methoxy-[1,2,4]triazolo[1,5-a]pyridin-2-yl}-cyclopropanecarboxylic acid (pyridin-3-ylmethyl)-amide]	0.7 nM	0.5 nM
COc1ccc(C(=O)Cc2c(Cl)cncc2Cl)n2nc(C3(C(=O)NCc4ccncc4)CC3)nc12 [Compound 114, 1-{5-[2-(3,5-Dichloro-pyridin-4-yl)-acetyl]-8-methoxy-[1,2,4]triazolo[1,5-a]pyridin-2-yl}-cyclopropanecarboxylic acid (pyridin-4-ylmethyl)-amide]	0.4 nM	0.2 nM
COc1ccc(C(=O)Cc2c(Cl)cncc2Cl)n2nc(C3(C(=O)NCC(C)(C)C)CC3)nc12 [Compound 115, 1-{5-[2-(3,5-Dichloro-pyridin-4-yl)-acetyl]-8-methoxy-[1,2,4]triazolo[1,5-a]pyridin-2-yl}-cyclopropanecarboxylic acid (2,2-dimethyl-propyl)-amide]	0.2 nM	
COc1ccc(C(=O)Cc2c(Cl)cncc2Cl)n2nc(C3(C(=O)NC4CCCC4)CC3)nc12 [Compound 116, 1-{5-[2-(3,5-Dichloro-pyridin-4-yl)-acetyl]-8-methoxy-[1,2,4]triazolo[1,5-a]pyridin-2-yl}-cyclopropanecarboxylic acid cyclopentylamide]	0.1 nM	
COc1ccc(C(=O)Cc2c(Cl)cncc2Cl)n2nc(C3(C(N)=O)CC3)nc12 [Compound 118, 1-{5-[2-(3,5-Dichloro-pyridin-4-yl)-acetyl]-8-methoxy-[1,2,4]triazolo[1,5-a]pyridin-2-yl}-cyclopropanecarboxylic acid amide]	3 nM	2 nM
COc1ccc(C(=O)Cc2c(Cl)cncc2Cl)n2nc(C3(CNCc4ccccc4)CC3)nc12 [Compound 119, 1-{2-[1-(Benzylamino-methyl)-cyclopropyl]-8-methoxy-[1,2,4]triazolo[1,5-a]pyridin-5-yl}-2-(3,5-dichloro-pyridin-4-yl)-ethanone]	8 nM	13 nM
COc1ccc(C(=O)Cc2cnccn2)n2nc(C3(CO)CC3)nc12 [Compound 120, 1-[2-(1-Hydroxymethyl-cyclopropyl)-8-methoxy-[1,2,4]triazolo[1,5-a]pyridin-5-yl]-2-pyrazin-2-yl-ethanone]	2500 nM	2200 nM
COc1ccc(C(=O)Cc2ccnc3ccccc23)n2nc(C3(CO)CC3)nc12 [Compound 121, 1-[2-(1-Hydroxymethyl-cyclopropyl)-8-methoxy-[1,2,4]triazolo[1,5-a]pyridin-5-yl]-2-quinolin-4-yl-ethanone]	3600 nM	2100 nM
COc1ccc(C(=O)Cc2ccncc2)n2nc(C3(CO)CC3)nc12 [Compound 122, 1-[2-(1-Hydroxymethyl-cyclopropyl)-8-methoxy-[1,2,4]triazolo[1,5-a]pyridin-5-yl]-2-pyridin-4-yl-ethanone]	261 nM	139 nM
COc1ccc(C(=O)Cc2c(Br)cncc2Br)n2nc(C3(CO)CC3)nc12 [Compound 123, 2-(3,5-Dibromo-pyridin-4-yl)-1-[2-(1-hydroxymethyl-cyclopropyl)-8-methoxy-[1,2,4]triazolo[1,5-a]pyridin-5-yl]-ethanone]	68 nM	15 nM
COc1ccc(C(=O)Cc2ccncc2Br)n2nc(C3(CO)CC3)nc12 [Compound 124, 2-(3-Bromo-pyridin-4-yl)-1-[2-(1-hydroxymethyl-cyclopropyl)-8-methoxy-[1,2,4]triazolo[1,5-a]pyridin-5-yl]-ethanone]	52 nM	115 nM
COc1ccc(C(=O)Cc2ccnc(C#N)c2)n2nc(C3(CO)CC3)nc12 [Compound 125, 4-{2-[2-(1-Hydroxymethyl-cyclopropyl)-8-methoxy-[1,2,4]triazolo[1,5-a]pyridin-5-yl]-2-oxo-ethyl}-pyridine-2-carbonitrile]	3100 nM	4800 nM
COc1ccc(C(=O)Cc2nccnc2Cl)n2nc(C3(CO)CC3)nc12 [Compound 126, 2-(3-Chloro-pyrazin-2-yl)-1-[2-(1-hydroxymethyl-cyclopropyl)-8-methoxy-[1,2,4]triazolo[1,5-a]pyridin-5-yl]-ethanone]	548 nM	712 nM
COc1ccc(C(=O)Cc2ccccc2Cl)n2nc(C3CC3)nc12 [Compound 127, 2-(2-Chloro-phenyl)-1-(2-cyclopropyl-8-methoxy-[1,2,4]triazolo[1,5-a]pyridin-5-yl)-ethanone]		105 nM
COc1ccc(C(=O)Cc2c(Cl)c[n+]([O-])cc2Cl)n2nc(C3CC3)nc12 [Compound 128, 1-(2-Cyclopropyl-8-methoxy-[1,2,4]triazolo[1,5-a]pyridin-5-yl)-2-(3,5-dichloro-1-oxy-pyridin-4-yl)-ethanone]		5 nM
